Biological target: T1, SYK (Homo sapiens, UniProt P43405)
T1 construct: 2.5 nM SYK, 400 nM Biotin-Aha-Aha-KEDPDYEWPSAKK
Assay: SYK flash plate assay (enzyme assay)
Format: biochemical
Procedure: The kinase assay is performed either as 384-well Flashplate assay (for e.g. Topcount measurement) or as 384-well Image-Flashplate assay (for LEADseeker measurement).
2.5 nM SYK, 400 nM Biotin-Aha-Aha-KEDPDYEWPSAKK
and 10 μM ATP (spiked with 0.3 μCi 33P-ATP/well) are incubated in a total volume of 50 μl (60 mM Hepes, 10 mM MgCl2, 1.2 mM Dithiothreitol, 0.02% Brij35, 0.1% BSA, pH 7.5) with or without test compound for 1 hours at 30° C. The reaction is stopped with 25 μl 200 mM EDTA. After 30 Min at 30° C. the liquid is removed and each well washed thrice with 100 μl 0.9% sodium chloride solution. Non-specific reaction is determined in presence of […] Staurosporine. Radioactivity is measured with Topcount (when using Flashplates) or with LEADseeker (when using Image-Flashplates) respectively. Results (e.g. IC50-values) are calculated with program tools provided by the IT-department (e.g. Symyx Assay Explorer, Genedata Screener). In Vivo Assays CIA

Row | Structure (SMILES) | IC50 [nM]
1 | CC1=NC2(CCN(c3nccn4nc(Nc5ccc6c(c5)NC(=O)C6(C)C)nc34)CC2)C(=O)N1 [E71, 8-[2-(3,3-dimethyl-2-oxo-2,3-dihydro-1H-indol-6-ylamino)-[1,2,4]triazolo[1,5-a]pyrazin-8-yl]-2-methyl-1,3,8-triaza-spiro[4.5]dec-1-en-4-one] | 100 to 300
2 | CC1(C)C(=O)Nc2cc(Nc3nc4c(N5CC6(C5)NC(=O)NC6=O)nccn4n3)ccc21 [C109, 2-[2-(3,3-dimethyl-2-oxo-2,3-dihydro-1H-indol-6-ylamino)-[1,2,4]triazolo[1,5-a]pyrazin-8-yl]-2,5,7-triaza-spiro[3.4]octane-6,8-dione] | 100 to 300
3 | CC1(C)C(=O)Nc2cc(Nc3nc4c(NCC5CCCNC5)nccn4n3)ccc21 (stereo not shown) [E79, 3,3-dimethyl-6-{8-[(piperidin-3-ylmethyl)-amino]-[1,2,4]triazolo[1,5-a]pyrazin-2-ylamino}-1,3-dihydro-indol-2-one] | 300 to 3000
4 | CC1(C)C(=O)Nc2cc(Nc3nc4c(OC5CCNC5)nccn4n3)ccc21 (stereo not shown) [E123, 3,3-dimethyl-6-[8-(pyrrolidin-3-yloxy)-[1,2,4]triazolo[1,5-a]pyrazin-2-ylamino]-1,3-dihydro-indol-2-one] | 3000 to 50000
5 | COc1ccccc1Nc1nc2c(-c3ccccc3-c3ccccc3)nccn2n1 [C24, (8-Biphenyl-2-yl-[1,2,4]triazolo[1,5-a]pyrazin-2-yl)-(2-methoxy-phenyl)-amine] | 3000 to 50000
6 | COC(=O)C1CCN(c2nccn3nc(Nc4ccc5c(c4)NC(=O)C5(C)C)nc23)C1 (stereo not shown) [E2, 1-[2-(3,3-dimethyl-2-oxo-2,3-dihydro-1H-indol-6-ylamino)-[1,2,4]triazolo[1,5-a]pyrazin-8-yl]-pyrrolidine-3-carboxylic acid methyl ester] | < 100
7 | CN(C)c1nccn2nc(Nc3ccc4c(c3)NC(=O)C4(C)C)nc12 [E88, 6-(8-dimethylamino-[1,2,4]triazolo[1,5-a]pyrazin-2-ylamino)-3,3-dimethyl-1,3-dihydro-indol-2-one] | < 100
8 | CC1(C)C(=O)Nc2cc(Nc3nc4c(N5CC6CCC(C5)O6)nccn4n3)ccc21 [E67, 3,3-dimethyl-6-[8-(8-oxa-3-aza-bicyclo[3.2.1]oct-3-yl)-[1,2,4]triazolo[1,5-a]pyrazin-2-ylamino]-1,3-dihydro-indol-2-one] | < 100
9 | CC1(C)C(=O)Nc2cc(Nc3nc4c(NS(=O)(=O)c5ccccc5)nccn4n3)ccc21 [E111, N-[2-(3,3-dimethyl-2-oxo-2,3-dihydro-1H-indol-6-ylamino)-[1,2,4]triazolo[1,5-a]pyrazin-8-yl]-benzenesulfonamide] | 300 to 3000
10 | CC1(C)C(=O)Nc2cc(Nc3nc4c(N5CCC6(C5)OCCO6)nccn4n3)ccc21 [E10, 6-[8-(1,4-dioxa-7-aza-spiro[4.4]non-7-yl)-[1,2,4]triazolo[1,5-a]pyrazin-2-ylamino]-3,3-dimethyl-1,3-dihydro-indol-2-one] | 100 to 300
11 | CC1Cc2ccccc2N1c1nccn2nc(Nc3ccc4c(c3)NC(=O)C4(C)C)nc12 (stereo not shown) [E137, 3,3-dimethyl-6-[8-(2-methyl-2,3-dihydro-indol-1-yl)-[1,2,4]triazolo[1,5-a]pyrazin-2-ylamino]-1,3-dihydro-indol-2-one] | < 100
12 | Cn1cc(-c2nccn3nc(Nc4ccc(CS(=O)(=O)O)c(N)c4)nc23)cn1 [E36, {2-amino-4-[8-(1-methyl-1H-pyrazol-4-yl)-[1,2,4]triazolo[1,5-a]pyrazin-2-ylamino]-phenyl}-methanesulfonic acid] | 100 to 300
13 | Cn1ncc2cc(-c3nccn4nc(Nc5ccc6c(c5)NC(=O)C6(C)C)nc34)ccc21 [E114] | < 100
14 | Cn1cc(-c2nccn3nc(Nc4ccc5c(c4)NC(=O)C54CCC4)nc23)cn1 [E8, 6′-[[8-(1-methylpyrazol-4-yl)-[1,2,4]triazolo[1,5-a]pyrazin-2-yl]amino]spiro[cyclobutane-1,3′-indoline]-2′-one] | < 100
15 | COc1ccc2c(c1)CCN2c1nccn2nc(Nc3ccc4c(c3)NC(=O)C4(C)C)nc12 [E81, 6-[8-(5-methoxy-2,3-dihydro-indol-1-yl)-[1,2,4]triazolo[1,5-a]pyrazin-2-ylamino]-3,3-dimethyl-1,3-dihydro-indol-2-one] | < 100
16 | CC1(C)C(=O)Nc2cc(Nc3nc4c(-c5cccc6[nH]ncc56)nccn4n3)ccc21 [C90, 6-[8-(1H-indazol-4-yl)-[1,2,4]triazolo[1,5-a]pyrazin-2-ylamino]-3,3-dimethyl-1,3-dihydro-indol-2-one] | < 100
17 | COc1ccc(Nc2nc3c(-c4ccccc4-c4ccccc4)nccn3n2)cc1 [C1, (8-Biphenyl-2-yl-[1,2,4]triazolo[1,5-a]pyrazin-2-yl)-(4-methoxy-phenyl)-amine] | 3000 to 50000

Row | Structure (SMILES) | IC50 [nM]
18 | CC1(C)C(=O)Nc2cc(Nc3nc4c(-c5cnc6c(c5)CCCO6)nccn4n3)ccc21 [E116, 6-[8-(3,4-Dihydro-2H-pyrano[2,3-b]pyridin-6-yl)-[1,2,4]triazolo[1,5-a]pyrazin-2-ylamino]-3,3-dimethyl-1,3-dihydro-indol-2-one] | < 100
19 | Cc1nn(C)c(C)c1-c1nccn2nc(Nc3ccc4c(c3)NC(=O)C4(C)C)nc12 [C68, 3,3-dimethyl-6-[8-(1,3,5-trimethyl-1H-pyrazol-4-yl)-[1,2,4]triazolo[1,5-a]pyrazin-2-ylamino]-1,3-dihydro-indol-2-one] | 300 to 3000
20 | CC1(C)C(=O)Nc2cc(Nc3nc4c(N5CC6C(=O)NC(=O)C6C5)nccn4n3)ccc21 (stereo not shown) [E33, 5-[2-(3,3-dimethyl-2-oxo-2,3-dihydro-1H-indol-6-ylamino)-[1,2,4]triazolo[1,5-a]pyrazin-8-yl]-tetrahydro-pyrrolo[3,4-c]pyrrole-1,3-dione] | 100 to 300
21 | CC1(C)CN(c2nccn3nc(Nc4ccc5c(c4)NC(=O)C5(C)C)nc23)c2cc(Cl)ccc21 [E100, 6-[8-(6-chloro-3,3-dimethyl-2,3-dihydro-indol-1-yl)-[1,2,4]triazolo[1,5-a]pyrazin-2-ylamino]-3,3-dimethyl-1,3-dihydro-indol-2-one] | 300 to 3000
22 | CC1(C)C(=O)Nc2cc(Nc3nc4c(N5CCC6(CC5)CNC(=O)C6)nccn4n3)ccc21 [E63, 8-[2-(3,3-dimethyl-2-oxo-2,3-dihydro-1H-indol-6-ylamino)-[1,2,4]triazolo[1,5-a]pyrazin-8-yl]-2,8-diaza-spiro[4.5]decan-3-one] | < 100
23 | CC1(C)C(=O)Nc2cc(Nc3nc4c(N[C@@H]5CCCNC5)nccn4n3)ccc21 [C87, 3,3-dimethyl-6-[8-((R)-piperidin-3-ylamino)-[1,2,4]triazolo[1,5-a]pyrazin-2-ylamino]-1,3-dihydro-indol-2-one] | 100 to 300
24 | Cn1cc(-c2nccn3nc(Nc4ccc5c(c4)NC(=O)NC5(C)C)nc23)cn1 [E26, 4,4-dimethyl-7-[8-(1-methyl-1H-pyrazol-4-yl)-[1,2,4]triazolo[1,5-a]pyrazin-2-ylamino]-3,4-dihydro-1H-quinazolin-2-one] | < 100
25 | CC1(C)C(=O)Nc2cc(Nc3nc4c(N5CCC6(CCC(=O)N6)CC5)nccn4n3)ccc21 [E35, 8-[2-(3,3-dimethyl-2-oxo-2,3-dihydro-1H-indol-6-ylamino)-[1,2,4]triazolo[1,5-a]pyrazin-8-yl]-1,8-diaza-spiro[4.5]decan-2-one] | < 100
26 | COc1cc(Nc2nc3c(N4CCCC(C(N)=O)C4)nccn3n2)cc(OC)c1 (stereo not shown) [D2, 1-[2-(3,5-dimethoxy-phenylamino)-[1,2,4]triazolo[1,5-a]pyrazin-8-yl]-piperidine-3-carboxylic acid amide] | 300 to 3000
27 | CC1(C)CCCc2cc(Nc3nc4c(N5CCC6(CC5)CNC(=O)O6)nccn4n3)ccc21 [E54, 8-[2-(5,5-dimethyl-5,6,7,8-tetrahydro-naphthalen-2-ylamino)-[1,2,4]triazolo[1,5-a]pyrazin-8-yl]-1-oxa-3,8-diaza-spiro[4.5]decan-2-one] | < 100
28 | Cn1cc(-c2nccn3nc(Nc4ccc5c(c4)NCCC5(C)C)nc23)cn1 [E21, (4,4-dimethyl-1,2,3,4-tetrahydro-quinolin-7-yl)-[8-(1-methyl-1H-pyrazol-4-yl)-[1,2,4]triazolo[1,5-a]pyrazin-2-yl]-amine] | < 100
29 | Cn1ncc2ccc(Nc3nc4c(-c5ccccc5-c5ccccc5)nccn4n3)cc21 [C20, (8-Biphenyl-2-yl-[1,2,4]triazolo[1,5-a]pyrazin-2-yl)-(1-methyl-1H-indazol-6-yl)-amine] | 300 to 3000
30 | CC1(C)C(=O)Nc2cc(Nc3nc4c(N5CC[C@@]6(O)CCCC[C@H]6C5)nccn4n3)ccc21 [E136, 6-[8-((4aS,8aS)-4a-hydroxy-octahydro-isoquinolin-2-yl)-[1,2,4]triazolo[1,5-a]pyrazin-2-ylamino]-3,3-dimethyl-1,3-dihydro-indol-2-one] | < 100
31 | CC1(C)C(=O)Nc2cc(Nc3nc4c(N5CC[C@]6(CNC(=O)C6)C5)nccn4n3)ccc21 [E52, 3,3-dimethyl-6-[8-((S)-8-oxo-2,7-diaza-spiro[4.4]non-2-yl)-[1,2,4]triazolo[1,5-a]pyrazin-2-ylamino]-1,3-dihydro-indol-2-one] | 100 to 300
32 | CC1(C)C(=O)Nc2cc(Nc3nc4c(N5CCc6ccc(C#N)cc65)nccn4n3)ccc21 [E134, 1-[2-(3,3-dimethyl-2-oxo-2,3-dihydro-1H-indol-6-ylamino)-[1,2,4]triazolo[1,5-a]pyrazin-8-yl]-2,3-dihydro-1H-indole-6-carbonitrile] | < 100
33 | CC1(C)C(=O)Nc2cc(Nc3nc4c(N5CCC(c6ncc(C(F)(F)F)[nH]6)CC5)nccn4n3)ccc21 [E59] | < 100
34 | CC1(C)C(=O)Nc2cc(Nc3nc4c(NCCN)nccn4n3)ccc21 [E110, 6-[8-(2-amino-ethylamino)-[1,2,4]triazolo[1,5-a]pyrazin-2-ylamino]-3,3-dimethyl-1,3-dihydro-indol-2-one] | 300 to 3000
